# Experimental data from article PMC6193938, “Characterization of a novel AICARFT inhibitor which potently elevates ZMP and has anti-tumor activity in murine models” (Scientific Reports, 2018).
# Where two headings read alike, the source gives them in different places.
# How the values were obtained:
# MDA-MB-231 (mammary) = assay: MS detection of ZMP in cultured cells; type: cell-based, human; conditions: for EC50: Homo sapiens, 16 hours
# Experimental: (§1) Cells lines were acquired from cell banks, see supplemental material, grown using the cell banks recommended culture conditions (Supplemental Table 3). In some experiments noted “low folate” the cells were washed and grown in folate free RPMI-1640 media (Gibco #27016-021) supplemented with 5 ml 1 M Hepes, 5 ml 100 mM Na pyruvate, 2.5 mg/ml glucose and 10% defined FBS (Hyclone #SH30070) per 500 mL media for 5–7 days to deplete intracellular folate levels prior to the start of the experiment. Where noted, cells were maintained in complete “high folate” RPMI-1640 media (ATCC #30-2001) with 10% defined FBS to contrast with the low folate conditions.
# (§2) ZMP was detected in cultured cells via mass spec analysis. Cells were plated in 96-well plates at 25,000 cells per well in 100 µL with either high or low folate RPMI media and incubated overnight at 37 °C with 5% CO2. Cells were treated with inhibitor compounds for 16 hours, 0.5% DMSO final concentration. Growth media was decanted and cells were lysed for 10 min at room temperature with 50 µL per well of 1x Sure Fire Lysis buffer (Perkin Elmer, SureFire kit component). Aliquots (40 µL) of standard or sample were combined in a deep 96-well plate with 160 µL of internal standard solution containing ^13C5-ZMP (custom synthesis) and ^13C5-AICAr (custom synthesis) at 100 ng/mL in 40 mM ammonium acetate, pH 4. 400 µL of dichloromethane was added to each sample. Samples were sealed, vortexed for 5 minutes, and placed in the refrigerator for at least 30 minutes. The samples were centrifuged at 4 °C for 10 minutes at 16,600 g. 75 µL of the aqueous layer were transferred to a clean 96-well plate and seal prior to analysis.
# (§3) The LC-MS method utilizes a Shimadzu Prominence 20 A HPLC system connected to an AB Sciex 5500™ or an AB Sciex 6500™ triple quadrupole mass spectrometer. Extracted samples were separated using a Thermo Hypercarb™ Javelin guard column (2.1 × 20 mm, 5 µm) with an injection volume of 15 µL and a flow rate of 1 mL/minute.
# (§4) ZMP, AICAr and dUMP were detected using positive ion TurboIonSpray® multiple reaction monitoring mode and the data were processed with AB Sciex MultiQuant™. Back-calculated ZMP concentrations were fit to a four-parameter logistic equation using ACTIVITYBASE 4.0 to determine EC50 values relative to the maximum observed metabolite levels.
# NCI-H460 (lung) = assay: MS detection of ZMP in cultured cells; type: cell-based, human; conditions: for EC50: 16 hours; for peak intracellular ZMP levels: NCI-H460 cells, calculated with 4 pL cell volume
# Experimental: as §1, §2, §3, §4
# NCI-H460 xenografts = assay: Pharmacodynamic response of tumor metabolites, single PO dose, low folate chow; type: in vivo, mouse
# Excerpt: Figure 4 Pharmacodynamic response of ZMP (purple), AICAR (blue), […] (green), dUMP (red), AMP (aqua) & GMP (orange) metabolites in tumors following a single PO dose of LSN3213128 in athymic nude mice.
# ALK4 = target: T1, ALK4 (Homo sapiens, UniProt P36896); assay: CEREP protein kinase assay; type: biochemical
# T1 construct: purchased CEREP Panlabs (Eurofins)
# T1 sequence (P36896 24-505): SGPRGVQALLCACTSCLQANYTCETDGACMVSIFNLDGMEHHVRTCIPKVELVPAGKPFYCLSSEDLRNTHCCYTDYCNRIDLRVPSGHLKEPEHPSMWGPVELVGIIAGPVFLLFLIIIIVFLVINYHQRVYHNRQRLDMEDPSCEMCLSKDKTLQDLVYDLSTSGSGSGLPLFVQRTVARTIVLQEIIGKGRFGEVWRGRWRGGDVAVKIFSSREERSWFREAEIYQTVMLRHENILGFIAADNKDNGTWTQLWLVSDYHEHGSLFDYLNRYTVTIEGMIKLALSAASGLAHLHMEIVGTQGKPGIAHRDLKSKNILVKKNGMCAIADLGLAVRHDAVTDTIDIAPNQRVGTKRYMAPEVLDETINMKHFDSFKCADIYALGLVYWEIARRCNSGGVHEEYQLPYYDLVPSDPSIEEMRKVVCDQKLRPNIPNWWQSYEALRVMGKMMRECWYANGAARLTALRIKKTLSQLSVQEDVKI
# EPHB1 = target: T2, EPHB1 (Homo sapiens, UniProt P54762); assay: CEREP protein kinase assay; type: biochemical
# T2 construct: purchased CEREP Panlabs (Eurofins)
# T2 sequence (P54762 18-984): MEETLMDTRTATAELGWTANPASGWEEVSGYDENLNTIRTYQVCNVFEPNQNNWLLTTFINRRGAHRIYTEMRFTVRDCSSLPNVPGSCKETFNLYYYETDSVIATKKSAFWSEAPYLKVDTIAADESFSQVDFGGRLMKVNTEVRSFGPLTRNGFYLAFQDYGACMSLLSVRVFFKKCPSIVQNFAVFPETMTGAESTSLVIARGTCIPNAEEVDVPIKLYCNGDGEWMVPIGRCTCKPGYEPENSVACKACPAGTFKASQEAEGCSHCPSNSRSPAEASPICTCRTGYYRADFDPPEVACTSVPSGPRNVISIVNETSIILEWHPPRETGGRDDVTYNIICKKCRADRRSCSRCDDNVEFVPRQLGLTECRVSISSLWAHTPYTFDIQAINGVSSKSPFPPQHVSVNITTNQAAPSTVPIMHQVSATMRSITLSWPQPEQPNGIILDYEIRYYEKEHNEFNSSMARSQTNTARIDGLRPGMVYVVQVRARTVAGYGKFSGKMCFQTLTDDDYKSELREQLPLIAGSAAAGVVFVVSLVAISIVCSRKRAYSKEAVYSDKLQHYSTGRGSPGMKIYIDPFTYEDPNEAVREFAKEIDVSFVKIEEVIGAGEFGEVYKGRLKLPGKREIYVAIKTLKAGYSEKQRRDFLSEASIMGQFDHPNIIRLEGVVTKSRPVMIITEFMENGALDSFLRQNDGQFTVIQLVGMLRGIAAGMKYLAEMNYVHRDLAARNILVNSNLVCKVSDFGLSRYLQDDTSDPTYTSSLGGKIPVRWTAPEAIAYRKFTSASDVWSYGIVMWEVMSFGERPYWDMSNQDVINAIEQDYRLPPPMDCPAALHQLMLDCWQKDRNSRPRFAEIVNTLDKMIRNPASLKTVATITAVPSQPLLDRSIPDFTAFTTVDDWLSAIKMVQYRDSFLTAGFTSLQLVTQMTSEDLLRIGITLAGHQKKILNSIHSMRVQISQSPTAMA
structure (smiles),measurement,setting,value
"O=c1[nH]ccc2cc(F)c(NS(=O)(=O)c3ccc(N4CC[C@@H](O)C4)s3)cc12 [LSN3213128, N-(6-Fluoro-1-oxo-1,2-dihydroisoquinolin-7-yl)-5-[(3R)-3-hydroxypyrrolidin-1-yl]thiophene-2-sulfonamide]",EC50,"MDA-MB-231 (mammary); RPMI media, read-out: ZMP EC50 Regular folate",89 nM
same,EC50,"MDA-MB-231 (mammary); low folate RPMI media, read-out: ZMP EC50 Low folate",7.6 nM
same,dUMP levels in tissue culture,MDA-MB-231 (mammary); data not shown,does not alter
same,EC50,"NCI-H460 (lung); Homo sapiens, NCI-H460, 16 h, NCI-H460, RPMI media, read-out: ZMP EC50 Regular folate",438 nM
same,EC50,"NCI-H460 (lung); Homo sapiens, NCI-H460, 16 h, NCI-H460, low folate RPMI media, read-out: ZMP EC50 Low folate",8 nM
same,EC50,"NCI-H460 (lung); NCI-H460, RPMI media, read-out: ZMP EC50 Regular folate",428 ± 102 nM
same,dUMP levels in tissue culture,"NCI-H460 (lung); NCI-H460, data not shown",does not alter
same,peak intracellular ZMP levels,NCI-H460 (lung); low folate media,540 µM
same,peak intracellular ZMP levels,NCI-H460 (lung); regular RPMI,"about 2,700 μM"
same,tumor dUMP levels,"NCI-H460 xenografts; low folate chow, 4 h, up to 60 mg/kg",unchanged
same,dose at which tumor ZMP response appears to saturate,"NCI-H460 xenografts; nude mice on low folate chow, 4 h post PO dose",1 mg/kg
same,inhibition at 0.2 µM,ALK4; @ 0.2 uM,-10.5%
same,inhibition at 2 µM,ALK4; @ 2 uM,10.4%
same,inhibition at 20 µM,ALK4; @ 20 uM,55%
same,inhibition at 0.2 µM,EPHB1; @ 0.2 uM,-10.2%
same,inhibition at 2 µM,EPHB1; @ 2 uM,11.7%
same,inhibition at 20 µM,EPHB1; @ 20 uM,57.1%
